In data set [1] the target is Cytochrome P450 4F12 (Homo sapiens, UniProt Q9HCS2). Description: Activity at human recombinant CYP4F12 expressed in baculovirus-infected BTI-TN-5B1-4 insect cell microsomes at 10 uM by HPLC-RA analysis in presence of CYP4F2 and CYP4F12 inhibitor ketoconazole. The format is ADME. The settings on record: bti-tn-5b1-4, 10 µM.
Data set [2] relates to Liver microsome. As to the kind of experiment: Drug metabolism in human liver microsomes assessed as total metabolite formation at 1 to 50 uM after 20 mins by HPLC-RA analysis in presence of mechanism-based CYP2E1 inhibitor DETC and NADPH. The format is ADME. Background: Liver microsomes are vesicles of endoplasmic reticulum, rich in cytochrome P450 enzymes.
The target in data set [3] is T1, Cytochrome P450 2C19 (Homo sapiens, UniProt P33261). As to the kind of experiment: Activity at human recombinant CYP2C19 expressed in baculovirus-infected BTI-TN-5B1-4 insect cell microsomes assessed as metabolite formation at 5 to 100 uM after 30 mins by HPLC-RA analysis. The format is ADME. Conditions: bti-tn-5b1-4, 0.5 h.
T1 sequence (P33261 whole entry): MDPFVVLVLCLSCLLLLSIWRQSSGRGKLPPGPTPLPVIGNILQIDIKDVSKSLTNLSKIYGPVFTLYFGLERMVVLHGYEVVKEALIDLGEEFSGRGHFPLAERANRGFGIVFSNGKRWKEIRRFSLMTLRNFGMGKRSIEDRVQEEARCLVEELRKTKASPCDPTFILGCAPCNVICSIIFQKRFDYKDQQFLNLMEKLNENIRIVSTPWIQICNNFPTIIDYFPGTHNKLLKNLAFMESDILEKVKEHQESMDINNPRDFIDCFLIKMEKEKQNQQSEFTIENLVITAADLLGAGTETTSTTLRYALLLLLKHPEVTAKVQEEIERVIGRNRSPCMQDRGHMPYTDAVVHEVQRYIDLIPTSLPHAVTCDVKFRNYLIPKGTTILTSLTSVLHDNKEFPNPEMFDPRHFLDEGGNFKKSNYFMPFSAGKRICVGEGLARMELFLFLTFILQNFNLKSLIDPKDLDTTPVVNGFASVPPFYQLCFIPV
The target in data set [4] is T2, Cytochrome P450 3A5 (Homo sapiens, UniProt P20815). As to the kind of experiment: Activity at human recombinant CYP3A5 expressed in baculovirus-infected BTI-TN-5B1-4 insect cell microsomes assessed as metabolite formation at 5 to 100 uM after 30 mins by HPLC-RA analysis. The format is ADME. The settings on record: bti-tn-5b1-4, 0.5 h.
T2 sequence (P20815 whole entry): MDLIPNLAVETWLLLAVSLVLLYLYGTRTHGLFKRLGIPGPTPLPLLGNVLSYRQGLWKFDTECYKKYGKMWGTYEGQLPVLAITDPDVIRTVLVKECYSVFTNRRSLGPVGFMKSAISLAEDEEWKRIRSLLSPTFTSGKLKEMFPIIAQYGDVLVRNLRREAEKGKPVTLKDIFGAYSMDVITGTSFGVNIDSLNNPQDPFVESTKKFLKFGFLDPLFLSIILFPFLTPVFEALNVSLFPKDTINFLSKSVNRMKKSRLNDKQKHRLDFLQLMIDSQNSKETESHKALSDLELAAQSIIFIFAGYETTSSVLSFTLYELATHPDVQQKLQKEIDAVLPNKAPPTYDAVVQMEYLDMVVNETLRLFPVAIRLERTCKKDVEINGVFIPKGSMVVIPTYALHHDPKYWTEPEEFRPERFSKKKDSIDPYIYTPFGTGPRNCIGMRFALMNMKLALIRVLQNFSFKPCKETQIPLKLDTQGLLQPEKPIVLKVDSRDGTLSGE
Data set [5] has as its system Liver microsome. Description: Drug metabolism in human liver microsomes assessed as total metabolite formation at 1 to 50 uM after 20 mins by HPLC-RA analysis in presence of CYP2D6 inhibitor quinidine. The format is ADME.
Data set [6] deals with T1, Cytochrome P450 2C19. Description: Activity at CYP2C19 in human liver microsomes isolated from donors assessed as metabolite formation after 24 mins by HPLC-RA analysis. It counts as ADME. Conditions: 0.4 h.
Data set [7] concerns Liver microsome. As to the kind of experiment: Drug metabolism in human liver microsomes assessed as metabolite formation at 50 uM treated 15 mins after antibody addition measured after 20 mins by HPLC-RA analysis in presence of CYP4F2-specific polyclonal antibody. It counts as ADME.
Data set [8] addresses T3, Cytochrome P450 2C8 (Homo sapiens, UniProt P10632). As to the kind of experiment: Activity at human recombinant CYP2C8 expressed in baculovirus-infected BTI-TN-5B1-4 insect cell microsomes assessed as metabolite formation at 5 to 100 uM after 30 mins by HPLC-RA analysis. The format is ADME. The settings on record: bti-tn-5b1-4, 0.5 h.
The target of data set [9] is T4, Cytochrome P450 4F2 (Homo sapiens, UniProt P78329).
T4 sequence (P78329 whole entry): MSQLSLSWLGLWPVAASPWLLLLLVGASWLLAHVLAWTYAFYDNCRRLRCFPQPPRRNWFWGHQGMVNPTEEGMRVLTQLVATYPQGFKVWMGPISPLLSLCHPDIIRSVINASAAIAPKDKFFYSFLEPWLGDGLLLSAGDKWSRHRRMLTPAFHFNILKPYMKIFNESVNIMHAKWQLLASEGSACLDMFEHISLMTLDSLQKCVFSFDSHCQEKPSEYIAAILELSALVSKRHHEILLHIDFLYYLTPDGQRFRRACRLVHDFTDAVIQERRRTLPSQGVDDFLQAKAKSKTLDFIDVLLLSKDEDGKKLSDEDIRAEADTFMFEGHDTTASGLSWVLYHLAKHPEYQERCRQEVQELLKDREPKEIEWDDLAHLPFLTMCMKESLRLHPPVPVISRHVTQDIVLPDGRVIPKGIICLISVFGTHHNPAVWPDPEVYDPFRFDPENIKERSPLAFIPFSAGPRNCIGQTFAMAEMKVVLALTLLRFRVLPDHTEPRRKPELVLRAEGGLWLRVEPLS
As to the kind of experiment: Activity at human recombinant CYP4F2 expressed in baculovirus-infected BTI-TN-5B1-4 insect cell microsomes assessed as intrinsic clearance for metabolite formation after 15 mins measured per nmol of P450 by Eadie-Hofstee plot analysis. The settings on record: bti-tn-5b1-4, 0.25 h. The format is ADME.

Data set [10] deals with Cytochrome P450 1A2 (Homo sapiens, UniProt P05177). As to the kind of experiment: Activity at human recombinant CYP1A2 expressed in baculovirus-infected BTI-TN-5B1-4 insect cell microsomes assessed as metabolite formation at 5 to 100 uM after 30 mins by HPLC-RA analysis. It counts as ADME. Conditions: bti-tn-5b1-4, 0.5 h.
For data set [11], the target named is Cytochrome P450 4A11 (Homo sapiens, UniProt Q02928). As to the kind of experiment: Activity at human recombinant CYP4A11 expressed in baculovirus-infected BTI-TN-5B1-4 insect cell microsomes assessed as metabolite formation at 5 to 100 uM after 30 mins by HPLC-RA analysis. It counts as ADME. Conditions: bti-tn-5b1-4, 0.5 h.
Cytochrome P450 4A11, sequence (Q02928 whole entry): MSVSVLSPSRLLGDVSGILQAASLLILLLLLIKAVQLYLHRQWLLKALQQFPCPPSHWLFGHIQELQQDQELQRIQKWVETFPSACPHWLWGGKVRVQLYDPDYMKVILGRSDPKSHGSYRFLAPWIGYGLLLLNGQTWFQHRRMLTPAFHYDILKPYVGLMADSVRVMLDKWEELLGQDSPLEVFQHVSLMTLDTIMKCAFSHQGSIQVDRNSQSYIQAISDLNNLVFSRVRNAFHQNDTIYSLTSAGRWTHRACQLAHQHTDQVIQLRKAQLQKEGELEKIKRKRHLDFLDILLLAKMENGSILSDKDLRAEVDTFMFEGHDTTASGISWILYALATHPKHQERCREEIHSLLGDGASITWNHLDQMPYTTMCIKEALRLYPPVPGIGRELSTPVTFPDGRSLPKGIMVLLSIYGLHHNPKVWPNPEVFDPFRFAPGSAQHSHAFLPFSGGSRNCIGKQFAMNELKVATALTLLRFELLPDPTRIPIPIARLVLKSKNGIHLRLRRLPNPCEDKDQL
The target in data set [12] is T4, Cytochrome P450 4F2. Description: Activity at human recombinant CYP4F2 expressed in baculovirus-infected BTI-TN-5B1-4 insect cell microsomes at 10 uM by HPLC-RA analysis in presence of CYP4F2 and CYP4F12 inhibitor ketoconazole. Conditions: bti-tn-5b1-4, 10 µM. The format is ADME.
The target of data set [13] is Cytochrome P450 1A1 (Homo sapiens, UniProt P04798). Description: Activity at human recombinant CYP1A1 expressed in baculovirus-infected BTI-TN-5B1-4 insect cell microsomes assessed as metabolite formation at 5 to 100 uM after 30 mins by HPLC-RA analysis. Conditions: bti-tn-5b1-4, 0.5 h. It counts as ADME.
Cytochrome P450 1A1, sequence (P04798 whole entry): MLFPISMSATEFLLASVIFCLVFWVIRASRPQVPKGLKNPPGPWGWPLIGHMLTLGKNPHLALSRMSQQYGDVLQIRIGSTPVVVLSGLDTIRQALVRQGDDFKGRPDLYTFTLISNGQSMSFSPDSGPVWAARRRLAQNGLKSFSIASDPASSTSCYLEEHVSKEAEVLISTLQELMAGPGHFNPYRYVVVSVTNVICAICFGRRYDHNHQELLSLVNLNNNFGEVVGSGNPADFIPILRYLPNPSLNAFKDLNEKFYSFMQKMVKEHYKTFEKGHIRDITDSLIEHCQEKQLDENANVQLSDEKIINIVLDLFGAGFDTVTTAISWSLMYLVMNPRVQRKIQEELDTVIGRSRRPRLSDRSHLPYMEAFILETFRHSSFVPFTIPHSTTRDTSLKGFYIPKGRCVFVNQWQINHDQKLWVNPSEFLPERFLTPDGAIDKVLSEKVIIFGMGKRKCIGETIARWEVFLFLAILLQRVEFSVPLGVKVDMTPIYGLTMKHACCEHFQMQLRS
Data set [14] has as its target T5, Cytochrome P450 2E1 (Homo sapiens, UniProt P05181). Description: Activity at CYP2E1 in human liver microsomes isolated from donors assessed as metabolite formation after 24 mins by HPLC-RA analysis. The format is ADME. The settings on record: 0.4 h.
The target in data set [15] is T3, Cytochrome P450 2C8. As to the kind of experiment: Activity at CYP2C8 in human liver microsomes isolated from donors assessed as metabolite formation after 24 mins by HPLC-RA analysis. It counts as ADME. The settings on record: 0.4 h.
The target of data set [16] is Cytochrome P450 2A6 (Homo sapiens, UniProt P11509). As to the kind of experiment: Activity at CYP2A6 in human liver microsomes isolated from donors assessed as metabolite formation after 24 mins by HPLC-RA analysis. It counts as ADME. Conditions: 0.4 h.
Cytochrome P450 2A6, sequence (P11509 whole entry): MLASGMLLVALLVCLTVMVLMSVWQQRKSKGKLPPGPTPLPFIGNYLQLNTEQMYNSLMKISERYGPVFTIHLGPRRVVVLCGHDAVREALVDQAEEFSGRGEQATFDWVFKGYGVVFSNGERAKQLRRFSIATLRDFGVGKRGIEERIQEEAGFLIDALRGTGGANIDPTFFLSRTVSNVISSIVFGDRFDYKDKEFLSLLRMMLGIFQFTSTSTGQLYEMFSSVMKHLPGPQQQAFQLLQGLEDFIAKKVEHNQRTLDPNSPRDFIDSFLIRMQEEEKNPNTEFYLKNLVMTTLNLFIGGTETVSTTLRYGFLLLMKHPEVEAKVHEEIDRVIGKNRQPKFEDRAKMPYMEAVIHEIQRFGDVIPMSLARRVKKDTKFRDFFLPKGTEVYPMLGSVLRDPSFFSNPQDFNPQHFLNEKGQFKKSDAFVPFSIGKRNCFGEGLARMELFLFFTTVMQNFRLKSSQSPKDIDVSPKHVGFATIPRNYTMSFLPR
In data set [17] the target is Aromatase (Homo sapiens, UniProt P11511). Description: Activity at human recombinant CYP19 expressed in baculovirus-infected BTI-TN-5B1-4 insect cell microsomes assessed as metabolite formation at 5 to 100 uM after 30 mins by HPLC-RA analysis. The format is ADME. The settings on record: bti-tn-5b1-4, 0.5 h.
Data set [18] can be described thus: Activity at CYP4F in human liver microsomes assessed as metabolite formation after 15 mins measured per mg protein by Eadie-Hofstee plot analysis. It counts as ADME. Conditions: 0.25 h.
Data set [19] deals with T5, Cytochrome P450 2E1. As to the kind of experiment: Activity at human recombinant CYP2E1 expressed in baculovirus-infected BTI-TN-5B1-4 insect cell microsomes assessed as metabolite formation at 5 to 100 uM after 30 mins by HPLC-RA analysis. It counts as ADME. Conditions: bti-tn-5b1-4, 0.5 h.
The target in data set [20] is T2, Cytochrome P450 3A5. Description: Activity at CYP3A5 in human liver microsomes isolated from donors assessed as metabolite formation after 24 mins by HPLC-RA analysis. The format is ADME. The settings on record: 0.4 h.
Data set [21] can be described thus: Drug metabolism in human liver cytosol assessed as metabolite formation by HPLC-RA analysis. The format is ADME, tissue-based.
The target in data set [22] is Cytochrome P450 2B6 (Homo sapiens, UniProt P20813). Description: Activity at human recombinant CYP2B6 expressed in baculovirus-infected BTI-TN-5B1-4 insect cell microsomes assessed as metabolite formation at 5 to 100 uM after 30 mins by HPLC-RA analysis. The format is ADME. The settings on record: bti-tn-5b1-4, 0.5 h.
Cytochrome P450 2B6, sequence (P20813 whole entry): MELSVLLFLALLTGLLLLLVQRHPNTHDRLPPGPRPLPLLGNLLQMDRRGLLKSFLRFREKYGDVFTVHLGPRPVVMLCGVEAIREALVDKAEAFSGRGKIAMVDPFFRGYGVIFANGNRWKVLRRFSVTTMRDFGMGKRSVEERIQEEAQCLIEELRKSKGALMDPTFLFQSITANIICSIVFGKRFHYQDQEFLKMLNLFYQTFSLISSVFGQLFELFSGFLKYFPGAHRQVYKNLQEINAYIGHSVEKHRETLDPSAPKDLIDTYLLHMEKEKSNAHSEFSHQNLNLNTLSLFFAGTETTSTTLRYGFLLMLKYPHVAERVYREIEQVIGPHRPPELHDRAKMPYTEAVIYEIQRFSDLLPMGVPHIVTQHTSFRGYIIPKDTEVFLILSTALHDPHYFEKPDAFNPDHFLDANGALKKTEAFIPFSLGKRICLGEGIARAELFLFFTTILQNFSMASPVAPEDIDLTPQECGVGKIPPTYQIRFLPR
Data set [23] deals with Liver microsome. Description: Drug metabolism in human liver microsomes assessed as total metabolite formation at 1 to 50 uM after 20 mins by HPLC-RA analysis in presence of CYP3A4 inhibitor ketoconazole. The format is ADME.
The target in data set [24] is T4, Cytochrome P450 4F2. Description: Activity at human recombinant CYP4F2 expressed in baculovirus-infected BTI-TN-5B1-4 insect cell microsomes assessed as metabolite formation at 50 uM by HPLC-RA analysis in presence of anti-CYP4F2. The format is ADME. Conditions: bti-tn-5b1-4, 50 µM.

This passage reports Drug metabolism, CL and Vmax results from ChEMBL document CHEMBL3525920, “CYP4F enzymes are responsible for the elimination of fingolimod (FTY720), a novel treatment of relapsing multiple sclerosis” (Drug Metab Dispos, 2011).

T5 sequence (P05181 whole entry): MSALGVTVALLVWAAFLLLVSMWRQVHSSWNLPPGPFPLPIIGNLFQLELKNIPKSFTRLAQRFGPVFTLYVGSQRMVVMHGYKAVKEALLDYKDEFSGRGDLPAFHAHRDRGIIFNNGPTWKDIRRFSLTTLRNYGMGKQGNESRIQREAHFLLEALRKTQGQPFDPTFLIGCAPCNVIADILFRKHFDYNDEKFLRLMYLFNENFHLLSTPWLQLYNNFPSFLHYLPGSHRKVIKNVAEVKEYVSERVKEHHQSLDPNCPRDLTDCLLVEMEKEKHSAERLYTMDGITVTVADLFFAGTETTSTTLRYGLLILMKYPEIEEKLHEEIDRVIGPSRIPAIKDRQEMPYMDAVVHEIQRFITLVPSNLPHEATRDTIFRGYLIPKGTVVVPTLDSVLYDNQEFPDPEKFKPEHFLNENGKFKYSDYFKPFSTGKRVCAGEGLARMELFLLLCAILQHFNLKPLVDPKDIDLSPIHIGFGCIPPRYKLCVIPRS
T3 sequence (P10632 whole entry): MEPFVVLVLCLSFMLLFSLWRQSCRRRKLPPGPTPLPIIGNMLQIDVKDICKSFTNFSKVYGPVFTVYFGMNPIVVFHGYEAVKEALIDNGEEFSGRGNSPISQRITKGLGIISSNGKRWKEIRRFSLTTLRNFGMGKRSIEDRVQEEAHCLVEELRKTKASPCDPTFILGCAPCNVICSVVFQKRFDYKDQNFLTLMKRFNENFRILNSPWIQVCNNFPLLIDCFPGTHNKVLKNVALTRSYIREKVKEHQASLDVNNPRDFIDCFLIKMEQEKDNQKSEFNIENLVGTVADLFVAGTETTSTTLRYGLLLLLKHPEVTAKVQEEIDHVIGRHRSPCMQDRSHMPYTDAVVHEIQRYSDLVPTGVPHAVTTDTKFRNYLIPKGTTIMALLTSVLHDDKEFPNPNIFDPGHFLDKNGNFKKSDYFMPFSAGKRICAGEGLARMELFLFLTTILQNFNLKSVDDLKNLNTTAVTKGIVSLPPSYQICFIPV
Cytochrome P450 4F12, sequence (Q9HCS2 whole entry): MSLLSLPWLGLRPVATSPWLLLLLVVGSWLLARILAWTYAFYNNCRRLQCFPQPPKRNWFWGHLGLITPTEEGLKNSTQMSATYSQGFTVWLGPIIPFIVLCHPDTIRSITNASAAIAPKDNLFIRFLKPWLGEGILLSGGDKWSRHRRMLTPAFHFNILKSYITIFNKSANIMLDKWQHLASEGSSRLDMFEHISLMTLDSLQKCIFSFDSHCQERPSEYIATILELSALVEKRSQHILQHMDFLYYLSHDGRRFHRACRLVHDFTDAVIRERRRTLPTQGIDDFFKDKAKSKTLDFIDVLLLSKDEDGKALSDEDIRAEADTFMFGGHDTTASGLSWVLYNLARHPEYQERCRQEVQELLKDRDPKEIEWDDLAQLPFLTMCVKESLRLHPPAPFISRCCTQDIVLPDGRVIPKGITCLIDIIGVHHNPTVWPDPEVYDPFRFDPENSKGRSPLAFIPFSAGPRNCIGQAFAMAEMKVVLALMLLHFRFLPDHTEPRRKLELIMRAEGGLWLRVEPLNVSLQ

One may read the Vmax as the top rate of the reaction or transport when substrate is in excess. `CCCCCCCCc1ccc(CC[14C](N)(CO)CO)cc1.Cl`: the Drug metabolism entry in [1] is “metabolite_not_detected”; in data set [2] it was “metabolite_detected”; in data set [3] it was “metabolite_not_detected”; in [4], “metabolite_not_detected”; in [5], “metabolite_detected”; in data set [6] it was “metabolite_not_detected”. For the same compound, the Drug metabolism entry in data set [7], in data set [8], in data set [10], in data set [11], in data set [12] and in data set [13] was “metabolite_not_detected” throughout. Besides, the Drug metabolism result in [14] is given as “metabolite_not_detected”; in data set [15], “metabolite_not_detected”; in [16], “metabolite_not_detected”; in data set [17], “metabolite_not_detected”; in data set [19] it was “metabolite_detected”; in data set [20], “metabolite_not_detected”. The Drug metabolism entry in [21], in data set [22], in data set [23] and in [24] was “metabolite_not_detected” each time. Further, in data set [9], the CL is 23 µL/min. The Vmax in [18] is listed as 847 pmol/min.
